The target in series [1] is T1, CFTR (Homo sapiens, UniProt P13569). In words: Short-circuit current (apical Cl− current) analysis on permeabilized CFTR-expressing FRT cells. The conditions noted are these: for inhibition at 50 µM: FRT, read-out: % inhibition at 50 μM; for change of inhibitory potency relative to parent compound: vs GlyH-101 / GlyH-102.
Target sequence in this assay (P13569 whole entry): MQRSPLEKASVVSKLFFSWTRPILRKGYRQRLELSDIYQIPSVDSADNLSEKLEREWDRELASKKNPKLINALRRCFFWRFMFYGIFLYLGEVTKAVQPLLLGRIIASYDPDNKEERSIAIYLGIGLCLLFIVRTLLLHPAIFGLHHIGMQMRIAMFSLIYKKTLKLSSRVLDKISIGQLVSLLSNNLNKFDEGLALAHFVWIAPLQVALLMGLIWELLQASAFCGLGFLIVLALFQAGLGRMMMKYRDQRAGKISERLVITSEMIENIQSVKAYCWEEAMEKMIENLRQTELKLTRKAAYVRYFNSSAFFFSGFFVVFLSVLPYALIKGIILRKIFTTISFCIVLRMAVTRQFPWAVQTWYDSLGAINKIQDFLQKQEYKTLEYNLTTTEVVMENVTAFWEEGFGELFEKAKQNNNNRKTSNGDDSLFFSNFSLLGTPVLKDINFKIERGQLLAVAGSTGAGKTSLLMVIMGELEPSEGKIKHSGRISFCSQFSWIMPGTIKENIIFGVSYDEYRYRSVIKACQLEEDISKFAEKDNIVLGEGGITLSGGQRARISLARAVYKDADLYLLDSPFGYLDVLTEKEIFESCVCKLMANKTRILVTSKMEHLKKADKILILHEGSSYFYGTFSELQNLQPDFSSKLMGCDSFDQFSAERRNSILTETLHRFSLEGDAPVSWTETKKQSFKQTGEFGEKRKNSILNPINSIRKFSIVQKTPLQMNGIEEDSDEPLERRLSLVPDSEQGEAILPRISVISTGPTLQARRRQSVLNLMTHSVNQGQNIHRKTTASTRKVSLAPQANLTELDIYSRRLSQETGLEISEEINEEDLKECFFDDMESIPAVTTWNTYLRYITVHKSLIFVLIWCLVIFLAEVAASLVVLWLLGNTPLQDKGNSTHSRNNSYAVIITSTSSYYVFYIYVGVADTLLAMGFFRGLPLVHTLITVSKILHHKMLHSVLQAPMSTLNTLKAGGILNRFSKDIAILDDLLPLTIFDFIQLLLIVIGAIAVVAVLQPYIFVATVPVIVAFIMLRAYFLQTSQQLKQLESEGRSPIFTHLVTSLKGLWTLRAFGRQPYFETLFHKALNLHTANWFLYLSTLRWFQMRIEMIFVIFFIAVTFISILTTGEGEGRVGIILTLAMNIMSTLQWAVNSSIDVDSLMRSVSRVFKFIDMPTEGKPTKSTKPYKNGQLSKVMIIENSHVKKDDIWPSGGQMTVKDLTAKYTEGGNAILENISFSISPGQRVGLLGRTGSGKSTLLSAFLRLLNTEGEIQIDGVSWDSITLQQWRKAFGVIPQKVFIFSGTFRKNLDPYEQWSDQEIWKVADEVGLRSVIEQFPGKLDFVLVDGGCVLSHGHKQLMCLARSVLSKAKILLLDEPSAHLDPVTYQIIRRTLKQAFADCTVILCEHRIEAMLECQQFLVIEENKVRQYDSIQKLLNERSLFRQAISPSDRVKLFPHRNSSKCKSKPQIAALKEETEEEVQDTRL
Series [2] can be described thus: Intestinal absorption in closed mid-jejunal loops. The following applies: mice, 2 hours. It counts as in vivo. As for the experimental part: Absorption studies were performed using mid-jejunal loops created as described above. […] After 2 hours loop fluid was withdrawn and optical absorbance of test compound and FITC were measured (OD342/OD494nm). Percentage intestinal absorption was computed assuming zero absorption of FITC-dextran.
Intestinal absorption was measured in mice in vivo from the disappearance of MalH compounds from the lumens of closed mid-jejunal loops over 2 hours. In these experiments mannitol was included in the MalH-containing solutions to prevent fluid absorption. Absorption rates were referenced against a large FITC-dextran, which was assumed to undergo no absorption over the 2 hour study.

For series [3], the target named is T1, CFTR. In words: Whole-cell patch-clamp on FRT cells expressing CFTR. Type of series: cell-based. Also on record: expressed in transfected cells; host or cells: Fisher Rat Thyroid (FRT) cells, stably transfected. The conditions noted are these: GlyH-101 at submaximal concentrations; CFTRinh-172 5 μM. As for the experimental part: Patch-clamp experiments were carried out at room temperature on FRT cells stably expressing wildtype CFTR. Cell-attached and whole-cell configurations were used (Hamill et al., Pflugers Arch. 391:85-100, 1981). The cell membrane was clamped at specified voltages using an EPC-7 patch-clamp amplifier (List Medical). Data were filtered at 500 Hz and digitized at 2000 Hz. For whole-cell experiments the pipette solution contained (in mM): 120 CsCl, 10 TEA-Cl, 0.5 EGTA, 1 MgCl2, 40 mannitol, 10 Cs-HEPES and 3 mM MgATP (pH 7.3). For cell attached experiments EGTA was replaced with 1 mM CaCl2. The bath solution for whole-cell experiments contained (in mM): 150 NaCl, 1 CaCl2, 1 MgCl2, 10 glucose, 10 mannitol, 10 Na-TES (pH 7.4). In cell-attached experiments the bath solution contained (in mM): 130 KCl, 2 NaCl, 2 CaCl2, 2 MgCl2, 10 glucose, 20 mannitol, and 10 K-Hepes (pH 7.3). Inhibitors were applied by extracellular perfusion. CFTR channel activity in cell-attached patches was analyzed as described previously (Taddei et al., FEBS Lett. 558:52-56, 2004).
The mechanism of CFTR block by GlyH-101 was studied using the whole-cell configuration of the patch-clamp technique. After maximal activation of CFTR in stably transfected FRT cells by 5 μM forskolin, current-voltage relationships were measured at GlyH-101 concentrations from 0 to 50 μM. […] Extracellular perfusion with 10 μM GlyH-101 produced an immediate reduction in current that was strongly dependent on membrane potential (FIG. 4A, right panel). At more positive membrane potentials outward positive currents (Cl^− movement into the cell) were reduced compared to inward currents. […] Data for the thiazolidinone 3-[(3-trifluoromethyl)phenyl]-5-[(4-carboxyphenyl)methylene]-2-thioxo-4-thiazolidinone (referred to herein as CFTRinh-172) (5 μM) is shown for comparison. […] FIG. 4C summarizes percentage CFTR current block as a function of GlyH-101 concentration at different membrane voltages.
Target sequence in this assay (P13569 whole entry): as above

Series [4] addresses T1, CFTR. Also on record: host or cells: 'permeabilized cell preparations' and 'most intact epithelial cells' (not specified). The conditions noted are these: cited from earlier work.
Target sequence in this assay (P13569 whole entry, species assumed): as the sequence (P13569 whole entry) above
In series [5] the test system is upper airway CFTR Cl− conductance. The series can be described thus: Nasal potential difference measurements in mice. The conditions noted are these: compound in all solutions (100 μM).
The nature of series [6]: Spectrophotometric pH titration (pKa). The following applies: read-out: pKa, secondary amine. Type of series: physicochemical. Here is the method: FIG. 5A is a graph illustrating the pH-dependent absorbance changes (right panel) of the chemical compounds (10 μM) (corresponding chemical structures, left panel) in NaCl (100 mM) containing MES, HEPES, boric acid, and citric acid (each 10 mM) titrated to different pH using HCl/NaOH. Absorbance changes measured at analytical wavelengths of 346, 348, 346, and 236 nm (top to bottom).

The mark [7] stands for this setting: Ki, Table 4, Group IV, concentration giving 50% inhibition of CFTR Cl− conductance.
The mark [8] stands for this setting: Table 1, Group I, concentration giving 50% inhibition of CFTR Cl− conductance.
[9] abbreviates: Ki, Table 1, Group I, concentration giving 50% inhibition of CFTR Cl− conductance.
Setting [10] is: Ki, Table 2, Group II, concentration giving 50% inhibition of CFTR Cl− conductance.
[11] abbreviates: Ki, Table 3, Group III, concentration giving 50% inhibition of CFTR Cl− conductance.

Consider 28 compounds from patent US7888332B2, “Hydrazide-containing CFTR inhibitor compounds and uses thereof” (The Regents of the University of California, priority 2004, dated 2011).

A word on the inhibition: it is the percentage by which the read-out fell short of the control. What is called % inhibition is the relative decrease from the control value, in per cent. In general, pKa refers to the negative logarithm of the acid dissociation constant.

Read-outs that look alike come from different tables or passages of the source.

Regarding `O=C(COc1ccc2ccccc2c1)NN=Cc1cc(Br)c(O)c(Br)c1O` [AceH-401], the inhibition at 50 µM at CFTR [1] was 84%. On CFTR [1] (setting [7]), the Ki is 21 µM.
On the same counts, the results for `O=C(COc1ccc2ccccc2c1)NN=Cc1cc(Br)c(O)c(Br)c1` [AceH-402] are 86% and 17 µM.
For the compound `Cc1ccc(CC(=O)NN=Cc2cc(Br)c(O)c(Br)c2O)cc1` [AceH-403], the inhibition at 50 µM on CFTR [1] stood at 54%. In addition, the Ki on CFTR [1] (setting [7]) came out at 10 µM.
Taken in the same sequence, the figures for `Cc1ccc(CC(=O)NN=Cc2cc(Br)c(O)c(Br)c2)cc1` [AceH-404] were 63% and 15 µM.
`O=C(O)c1ccc(C=C2SC(=S)N(c3cccc(C(F)(F)F)c3)C2=O)cc1` [CFTRinh-172, 3-[(3-trifluoromethyl)phenyl]-5-[(4-carboxyphenyl)methylene]-2-thioxo-4-thiazolidinone]: in series [2], the “absorption from closed mid-jejunal loops” value is listed as over 90%. Also, the current-voltage relationship entry at CFTR [3] was “linear”. Besides, the values for the Ki on CFTR [4] (most intact epithelial cells) and on CFTR [4] (permeabilized cell preparations) were 2 to 5 µM and 0.2 to 0.3 µM, respectively.
Turning to `O=S(=O)(O)c1cc(N=C=S)ccc1C=Cc1ccc(N=C=S)cc1S(=O)(=O)O` [DIDS, reference compound], the “inhibition of (CFTR-independent) hyperpolarization produced by low Cl−” value in series [5] is reported as “partial inhibition”.
On to `O=C(CNc1ccc2ccccc2c1)N/N=C/c1cc(Br)c(O)c(Br)c1` [GlyH-102], for which, at CFTR [1] (Table 1, Group I), the “% inhibition at 50 μM” value worked out at 98%. On CFTR [1] (setting [8]), this compound registered a Ki of 5 µM.
On to `COc1c(Br)cc(C=NNC(=O)CNc2ccc3ccccc3c2)c(O)c1Br` [GlyH-103], for which the inhibition at 50 µM on CFTR [1] is 56%. Also, the Ki at CFTR [1] (setting [9]) was 20 µM.
As to `O=C(CNc1cccc2ccccc12)NN=Cc1cc(Br)c(O)c(Br)c1O` [GlyH-104], at CFTR [1], the inhibition at 50 µM came to 86% and the “change of inhibitory potency relative to parent compound” value is listed as “ten-fold”. This compound also had a Ki at CFTR [1] (setting [9]) of 12 µM.
Consider `O=C(CNc1cccc2ccccc12)NN=Cc1cc(Br)c(O)c(Br)c1` [GlyH-105], for which, at CFTR [1], the inhibition at 50 µM is 87%. On CFTR [1] (setting [9]), the Ki stood at 15 µM.
In the case of `CC(Nc1ccc2ccccc2c1)C(=O)NN=Cc1cc(Br)c(O)c(Br)c1O` (stereo not shown) [GlyH-106], on CFTR [1] (Table 1, Group I), the “% inhibition at 50 μM” value is given as 91%. The same compound yielded a Ki at CFTR [1] (setting [8]) of 6 µM.
On to `CC(Nc1ccc2ccccc2c1)C(=O)NN=Cc1cc(Br)c(O)c(Br)c1` (stereo not shown) [GlyH-107], for which the inhibition at 50 µM at CFTR [1] was determined as 80%. This compound had a Ki on CFTR [1] (setting [9]) of 10 µM.
With `CC(=NNC(=O)CNc1ccc2ccccc2c1)c1cc(Br)c(O)c(Br)c1O` [GlyH-108], at CFTR [1] (Table 1, Group I), the “% inhibition at 50 μM” value is recorded as 81%. Besides, on CFTR [1] (setting [8]), the Ki turned out to be 10 µM.
Turning to `CC(=NNC(=O)CNc1ccc2ccccc2c1)c1cc(Br)c(O)c(Br)c1` [GlyH-109], at CFTR [1], the inhibition at 50 µM came to 100%. On CFTR [1] (setting [9]), this compound registered a Ki of 2.5 µM.
Turning to `O=C(CNc1ccc(Cl)cc1)NN=Cc1cc(Br)c(O)c(Br)c1` [GlyH-114], the inhibition at 50 µM on CFTR [1] was 95%. On CFTR [1] (setting [9]), this compound gave a Ki of 5 µM.
On the same counts, the results for `O=C(CNc1ccc(Cl)cc1)NN=Cc1cc(Br)c(O)c(Br)c1O` [GlyH-115] are 91% and 5 µM.
For `Cc1ccc(NCC(=O)NN=Cc2cc(Br)c(O)c(Br)c2O)cc1` [GlyH-116], the inhibition at 50 µM at CFTR [1] came to 79%. On CFTR [1] (setting [9]), this compound had a Ki of 10 µM.
As for `O=C(CNc1ccc2ccccc2c1)NNC(=O)c1cc(Br)c(O)c(Br)c1` [GlyH-202, 3,5-dibromo-4-hydroxy-[2-(2-napthalenamine)aceto]benzoic acid hydrazide], at CFTR [1], the inhibition at 50 µM came to 57%. Further, on CFTR [1] (setting [10]), the Ki amounted to 22 µM.
Turning to `O=C(CNc1ccc2ccccc2c1)NNCc1cc(Br)c(O)c(Br)c1` [GlyH-302], on CFTR [1], the inhibition at 50 µM came out at 55%. Also, at CFTR [1] (setting [11]), the Ki was about 50 µM.
`O=C(NN=Cc1cc(Br)c(O)c(Br)c1O)C(=O)Nc1ccc2ccccc2c1` [OxaH-110, N-2-napthalenyl-[(3,5-dibromo-2,4-dihydroxyphenyl)methylene]oxamic acid hydrazide]: the inhibition at 50 µM at CFTR [1] was found to be 86%. Also, the Ki on CFTR [1] (setting [9]) is 2 µM; on CFTR [1] (apparent Ki, CFTR stimulated by 100 μM CPT-cAMP), about 2 µM. Also, at CFTR [1], the “change of inhibitory potency relative to parent compound” value is recorded as “two-three fold greater”.
Regarding `O=C(NN=Cc1cc(Br)c(O)c(Br)c1)C(=O)Nc1ccc2ccccc2c1` [OxaH-111], at CFTR [1], the inhibition at 50 µM is 52% and the “change of inhibitory potency relative to parent compound” value is “two-three fold greater”. Moreover, at CFTR [1] (setting [9]), the Ki is 2.5 µM.
For `CC(=NNC(=O)C(=O)Nc1ccc2ccccc2c1)c1cc(Br)c(O)c(Br)c1O` [OxaH-112], the inhibition at 50 µM at CFTR [1] amounted to 95%. At CFTR [1] (setting [9]), this compound returned a Ki of 3 µM.
On the same counts, the results for `CC(=NNC(=O)C(=O)Nc1ccc2ccccc2c1)c1cc(Br)c(O)c(Br)c1` [OxaH-113] are 90% and 3 µM.
Compound `O=C(NNC(=O)c1cc(Br)c(O)c(Br)c1O)C(=O)Nc1ccc2ccccc2c1` [OxaH-203] had a Ki at CFTR [1] (setting [10]) of over 50 µM.
The same measure, in the same setting: the figure for `O=C(NNC(=O)c1cc(Br)c(O)c(Br)c1)C(=O)Nc1ccc2ccccc2c1` [OxaH-204] is over 50 µM.
In the case of `O=C(NNCc1cc(Br)c(O)c(Br)c1O)C(=O)Nc1ccc2ccccc2c1` [OxaH-303], the inhibition at 50 µM on CFTR [1] is 70%. The compound further had a Ki on CFTR [1] (setting [11]) of 10 µM.
On the same counts, the results for `O=C(NNCc1cc(Br)c(O)c(Br)c1)C(=O)Nc1ccc2ccccc2c1` [OxaH-304] are 78% and 12 µM.
With `CCOC(=O)CNc1ccc2ccccc2c1` [ethyl N-(2-napthalenyl) glycinate, ethyl N-(2-naphthalenyl)glycinate], in series [6], the pKa is about 4.7.
